The source of these data is patent US10034898B2, “Methods and systems for treatment of inflammatory diseases with nitric oxide” (priority 2012, dated 2018).

For assay [1], the system named is micro-capillary blood flow to skin. Description: Laser Doppler capillary blood flow study, Example 5 (closed Hilltop chamber on forearm). The class given is in vivo, humans. The conditions noted are these: applied to the skin at 1/10% in alcohol. As to the method: This example illustrates delivery of nitric oxide formulations similar to those discussed herein in humans. In these studies, laser Doppler studies were performed on three human female subjects. […] The formulations used produce positive, almost immediate results when applied to the skin which, in these studies, was manifested by vasodilatation of the cutaneous vascular system.
While nitric oxide has many physiological effects, the purpose of these studies was to measure physiological effects that would be relatively easy to determine, and which would be noninvasive. […] Nitric oxide is capable of […] the capillary bed, and thus, laser Doppler was selected.
The formulation used in these studies contained nitric oxide dispersed in a lipid matrix. […] This provided a stable measuring device as determined by multiple normal evaluations of the capillary blood flow without treatment of nitric oxide.
A known positive control, methyl nicotinate, was applied to the skin at a concentration of 1/10% in alcohol. […] The laser Doppler device accurately measured these parameters.
In these studies, the participants were healthy females aged 30 to 55 years. They were in good health as determined by the medical history and were not taking any prescription medications. All study participants read and signed the informed consent statement prior to any study procedures being performed. […]

Assay [2] relates to capillary circulation of the skin. Put plainly: Laser Doppler circulation study in five human subjects, Example 7. The class given is in vivo. The following applies: positive control formulation containing 0.1% methyl nicotinate, vs untreated skin. From the text: This example illustrates delivery of nitric oxide formulations to five human subjects, using procedures and formulations similar to those discussed in Example 5. Each person served as their own control for the testing. A Moor Instruments Laser Doppler was used to determine circulation. […] The formulations used produce positive, almost immediate results when applied to the skin which, in these studies, was manifested by vasodilatation of the cutaneous vascular system.
For each subject, the following creams were applied: a negative control formulation (containing no NO), 0.010 gram of a 10,000 ppm NO formulation, 0.020 gram of a 10,000 ppm NO formulation, and a positive control formulation containing 0.1% methyl nicotinate. The formulations were prepared using procedures similar to those discussed in Example 1.

Turning to `COC(=O)c1cccnc1` [methyl nicotinate], the “laser Doppler response of positive control” value in assay [1] was “rapid response typical of the vasodilator”. For the same compound, in assay [2], the vasodilatation result is “vasodilatation was observed”.
